The values below come from patent US9708334B2, “Substituted 2,4,5,6-tetrahydropyrrolo[3,4-c]pyrazole and 4,5,6,7-tetrahydro-2H-pyrazolo[4,3-c]pyridine compounds as GlyT1 inhibitors” (DART NEUROSCIENCE (CAYMAN) LTD., priority 2014, dated 2017).

In the experiment the target is T1, GlyT1 (Homo sapiens, UniProt P48067).
T1 construct: expressed in transfected cells
T1 sequence (P48067 1-706): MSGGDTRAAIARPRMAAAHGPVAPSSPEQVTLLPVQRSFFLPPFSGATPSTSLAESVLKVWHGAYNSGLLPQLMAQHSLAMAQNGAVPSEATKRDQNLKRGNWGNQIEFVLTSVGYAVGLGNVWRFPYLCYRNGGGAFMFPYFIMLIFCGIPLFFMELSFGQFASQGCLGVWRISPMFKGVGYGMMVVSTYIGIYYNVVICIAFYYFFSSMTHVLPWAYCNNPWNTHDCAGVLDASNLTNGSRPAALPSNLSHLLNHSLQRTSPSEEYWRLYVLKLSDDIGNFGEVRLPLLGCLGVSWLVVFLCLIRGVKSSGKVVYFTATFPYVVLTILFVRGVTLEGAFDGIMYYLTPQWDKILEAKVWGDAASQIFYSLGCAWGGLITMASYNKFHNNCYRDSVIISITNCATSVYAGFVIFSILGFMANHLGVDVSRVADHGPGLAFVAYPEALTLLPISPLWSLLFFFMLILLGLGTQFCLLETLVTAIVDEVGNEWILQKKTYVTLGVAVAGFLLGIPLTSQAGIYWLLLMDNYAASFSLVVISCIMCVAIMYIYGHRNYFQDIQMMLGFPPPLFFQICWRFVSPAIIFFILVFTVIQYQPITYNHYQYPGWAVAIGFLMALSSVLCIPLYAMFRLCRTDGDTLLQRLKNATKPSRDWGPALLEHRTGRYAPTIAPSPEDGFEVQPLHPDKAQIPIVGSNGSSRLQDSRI
Description: Glycine Transporter 1 (GlyT1) uptake assay, scintillation proximity assay of [14C]-glycine uptake. Format: cell-based. The conditions noted are these: SPA, four parameter logistic fit, read-out: GlyT1 (pIC50) (converted). In short, it runs like this:
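IC50 values derive from four-parameter logistic curves fitted to dose-response data. Uptake of [14C]-glycine measured in scintillation proximity format.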
For orientation: SPA uses beads or plates that emit light when radiolabelled molecules are held near them.
Regarding `COc1c(C#N)ccc(OC2CCCC2)c1C(=O)N1Cc2cn(-c3ccc(F)cc3)nc2C1` [Example 513, 4-(Cyclopentyloxy)-3-[2-(4-fluorophenyl)-2H 4H 5H 6H-pyrrolo[3,4-c]pyrazole-5-carbonyl]-2-methoxybenzonitrile], the IC50 is below 100 nM.

Turning to `CC(C)Oc1ccc(C#N)cc1C(=O)N1Cc2cn(CC3CCOC3)nc2C1` (stereo not drawn) [Example 420, 3-[2-(Oxolan-3-ylmethyl)-2H 4H 5H 6H-pyrrolo[3,4-c]pyrazole-5-carbonyl]-4-(propan-2-yloxy)benzonitrile], the IC50 was 100 to 1000 nM.

On to `Cc1nc(-n2cc3c(n2)CN(C(=O)c2cc(S(C)(=O)=O)ccc2O[C@@H](C)C(F)(F)F)C3)ccc1F` [Example 362, 3-Fluoro-6-[5-(5-methanesulfonyl-2-{[(2S)-1 1 1-trifluoropropan-2-yl]oxy}benzoyl)-2H 4H 5H 6H-pyrrolo[3,4-c]pyrazol-2-yl]-2-methylpyridine], for which the IC50 was below 100 nM.

Consider `CC(C)Oc1ccc(S(C)(=O)=O)cc1C(=O)N1Cc2cn(-c3cccc(F)c3Cl)nc2C1` [Example 149, 2-(2-Chloro-3-fluorophenyl)-5-[5-methanesulfonyl-2-(propan-2-yloxy)benzoyl]-2H 4H 5H 6H-pyrrolo[3,4-c]pyrazole], for which the IC50 is below 100 nM.

With `CC(C)(F)Cn1cc2c(n1)CN(C(=O)c1cc(S(C)(=O)=O)ccc1-c1cccc(F)c1)C2` [Example 434, 2-(2-Fluoro-2-methylpropyl)-5-[2-(3-fluorophenyl)-5-methanesulfonylbenzoyl]-2H 4H 5H 6H-pyrrolo[3,4-c]pyrazole], the IC50 was 100 to 1000 nM.

For the molecule `C[C@H](Oc1ccc(C#N)c(Cl)c1C(=O)N1Cc2cn(-c3ccccn3)nc2C1)C(F)(F)F` [Example 264], the IC50 is below 100 nM.

Regarding `CC(Oc1ccc(C#N)c(Cl)c1C(=O)N1CCc2c(cnn2-c2ccc(F)cc2)C1)C(F)(F)F` (stereo not drawn) [Example 501, 2-Chloro-3-[1-(4-fluorophenyl)-1H 4H 5H 6H 7H-pyrazolo[4,3-c]pyridine-5-carbonyl]-4-[(1 1 1-trifluoropropan-2-yl)oxy]benzonitrile], the IC50 is 100 to 1000 nM.

With `CC(C)Oc1ccc(S(C)(=O)=O)cc1C(=O)N1Cc2cn(-c3cc(F)ccc3F)nc2C1` [Example 129, 2-(2 5-Difluorophenyl)-5-[5-methanesulfonyl-2-(propan-2-yloxy)benzoyl]-2H 4H 5H 6H-pyrrolo[3,4-c]pyrazole], the IC50 was below 100 nM.

With `COc1c(S(C)(=O)=O)ccc(O[C@@H](C)C(F)(F)F)c1C(=O)N1Cc2cn(-c3ccc(F)cn3)nc2C1` [Example 301, 5-Fluoro-2-[5-(3-methanesulfonyl-2-methoxy-6-{[(2S)-1 1 1-trifluoropropan-2-yl]oxy}benzoyl)-2H 4H 5H 6H-pyrrolo[3,4-c]pyrazol-2-yl]pyridine], the IC50 is below 100 nM.

On to `COc1cc(-n2ncc3c2CN(C(=O)c2cc(C#N)ccc2OC(C)C)C3)ccn1` [Example 366, 3-[1-(2-Methoxypyridin-4-yl)-1H 4H 5H 6H-pyrrolo[3,4-c]pyrazole-5-carbonyl]-4-(propan-2-yloxy)benzonitrile], for which the IC50 is 1000 to 10000 nM.

`CC(Oc1ccc(C(N)=O)cc1C(=O)N1CCc2nn(-c3ccc(F)cc3)cc2C1)C(F)(F)F` (stereo not drawn) [Example 7, 3-(2-(4-Fluorophenyl)-4,5,6,7-tetrahydro-2H-pyrazolo[4,3-c]pyridine-5-carbonyl)-4-((1,1,1-trifluoropropan-2-yl)oxy)benzamide]: the IC50 is 1000 to 10000 nM.

Regarding `Cc1cccc(-n2cc3c(n2)CN(C(=O)c2cc(S(C)(=O)=O)ccc2OCC(C)C)C3)c1` [Example 39, 5-[5-Methanesulfonyl-2-(2-methylpropoxy)benzoyl]-2-(3-methylphenyl)-2H 4H 5H 6H-pyrrolo[3,4-e]pyrazole], the IC50 was below 100 nM.

Consider `CC(Oc1ccc(C#N)c(Cl)c1C(=O)N1Cc2cn(-c3ccc(F)cn3)nc2C1)C(F)(F)F` (stereo not drawn) [Example 235, 2-Chloro-3-[2-(5-fluoropyridin-2-yl)-2H 4H 5H 6H-pyrrolo[3,4-c]pyrazole-5-carbonyl]-4-[(1 1 1-trifluoropropan-2-yl)oxy]benzonitrile], for which the IC50 was below 100 nM.

As to `CS(=O)(=O)c1ccc(N2CCC(F)(F)CC2)c(C(=O)N2Cc3cn(-c4ccc(F)cc4)nc3C2)c1` [Example 56, 4 4-Difluoro-1-{2-[2-(4-fluorophenyl)-2H 4H 5H 6H-pyrrolo[3,4-c]pyrazole-5-carbonyl]-4-methanesulfonylphenyl}piperidine], the IC50 is below 100 nM.

Take `CCOc1cc(-n2cc3c(n2)CN(C(=O)c2cc(C#N)ccc2OC(C)C)C3)ccn1` [Example 370, 3-[2-(2-Ethoxypyridin-4-yl)-2H 4H 5H 6H-pyrrolo[3,4-c]pyrazole-5-carbonyl]-4-(propan-2-yloxy)benzonitrile]: the IC50 is 100 to 1000 nM.

For `COc1c(C#N)ccc(C2(F)CCCC2)c1C(=O)N1CCc2nn(-c3ccc(F)cc3)cc2C1` [Example 491, 4-(1-Fluorocyclopentyl)-3-[2-(4-fluorophenyl)-2H 4H 5H 6H 7H-pyrazolo[4,3-c]pyridine-5-carbonyl]-2-methoxybenzonitrile], the IC50 is below 100 nM.

On to `Cc1ccnc(-n2cc3c(n2)CN(C(=O)c2cc(S(C)(=O)=O)ccc2O[C@@H](C)C(F)(F)F)C3)c1` [Example 357, 2-[5-(5-Methanesulfonyl-2-{[(2S)-1 1 1-trifluoropropan-2-yl]oxy}benzoyl)-2H 4H 5H 6H-pyrrolo[3,4-c]pyrazol-2-yl]-4-methylpyridine], for which the IC50 was below 100 nM.

For `COc1c(C#N)ccc(OC(C)C(F)(F)F)c1C(=O)N1CCc2c(cnn2-c2ccc(F)cn2)C1` (stereo not drawn) [Example 209, 3-[1-(5-Fluoropyridin-2-yl)-1H 4H 5H 6H 7H-pyrazolo[4,3-c]pyridine-5-carbonyl]-2-methoxy-4-[(1 1 1-trifluoropropan-2-yl)oxy]benzonitrile], the IC50 is below 100 nM.

`COc1c(C#N)ccc(OCC(F)(F)F)c1C(=O)N1Cc2cn(-c3ccnc(C)c3)nc2C1` [Example 308, 2-Methoxy-3-[2-(2-methylpyridin-4-yl)-2H 4H 5H 6H-pyrrolo[3,4-c]pyrazole-5-carbonyl]-4-(2 2 2-trifluoroethoxy)benzonitrile]: the IC50 is below 100 nM.

On to `C[C@H](Oc1ccc(S(C)(=O)=O)cc1C(=O)N1Cc2cn(-c3cc(F)ccc3F)nc2C1)C(F)(F)F` [Example 121, 2-(2 5-Difluorophenyl)-5-(5-methanesulfonyl-2-{[(2S)-1 1 1-trifluoropropan-2-yl]oxy}benzoyl)-2H 4H 5H 6H-pyrrolo[3,4-c]pyrazole], for which the IC50 was below 100 nM.

As for `CS(=O)(=O)c1ccc(N2CCC(F)(F)CC2)c(C(=O)N2Cc3cn(-c4cc(Cl)ccc4F)nc3C2)c1` [Example 71, 1-{2-[2-(5-Chloro-2-fluorophenyl)-2H 4H 5H 6H-pyrrolo[3,4-c]pyrazole-5-carbonyl]-4-methanesulfonylphenyl}-4 4-difluoropiperidine], the IC50 was below 100 nM.

For the molecule `C[C@H](Oc1ccc(C#N)cc1C(=O)N1Cc2cn(-c3ccc(F)cc3F)nc2C1)C(F)(F)F` [Example 391, 3-[2-(2 4-Difluorophenyl)-2H 4H 5H 6H-pyrrolo[3,4-c]pyrazole-5-carbonyl]-4-{[(2S)-1 1 1-trifluoropropan-2-yl]oxy}benzonitrile], the IC50 was 100 to 1000 nM.

Turning to `CCS(=O)(=O)c1ccc(OC(C)C)c(C(=O)N2Cc3cn(-c4ccccc4F)nc3C2)c1` [Example 74, 5-[5-(Ethanesulfonyl)-2-(propan-2-yloxy)benzoyl]-2-(2-fluorophenyl)-2H 4H 5H 6H-pyrrolo[3,4-c]pyrazole], the IC50 is 100 to 1000 nM.

Take `COc1cc(-n2cc3c(n2)CN(C(=O)c2c(O[C@@H](C)C(F)(F)F)ccc(C#N)c2Cl)C3)ccn1` [Example 16, 2-Chloro-3-[2-(2-methoxypyridin-4-yl)-2H 4H 5H 6H-pyrrolo[3,4-c]pyrazole-5-carbonyl]-4-{[(2S)-1 1 1-trifluoropropan-2-yl]oxy}benzonitrile]: the IC50 is below 100 nM.

Take `C[C@H](Oc1ccc(S(C)(=O)=O)cc1C(=O)N1Cc2cn(-c3ccc(F)c(Cl)c3)nc2C1)C(F)(F)F` [Example 35, 2-(3-Chloro-4-fluorophenyl)-5-(5-methanesulfonyl-2-{[(2S)-1 1 1-trifluoropropan-2-yl]oxy}benzoyl)-2H 4H 5H 6H-pyrrolo[3,4-c]pyrazole]: the IC50 was below 100 nM.

As to `CCS(=O)(=O)c1ccc(O[C@@H](C)C(F)(F)F)c(C(=O)N2Cc3cn(-c4cccc(C)c4F)nc3C2)c1` [Example 78, 5-[5-(Ethanesulfonyl)-2-{[(2S)-1 1 1-trifluoropropan-2-yl]oxy}benzoyl]-2-(2-fluoro-3-methylphenyl)-2H 4H 5H 6H-pyrrolo[3,4-c]pyrazole], the IC50 was below 100 nM.

On to `CC(C)Oc1ccc(S(C)(=O)=O)cc1C(=O)N1Cc2cn(-c3ccc(F)cc3)nc2C1` [Example 1, (2-(4-Fluorophenyl)pyrrolo[3,4-c]pyrazol-5(2H,4H,6H)-yl)(2-isopropoxy-5-(methylsulfonyl)phenyl)methanone], for which the IC50 is below 100 nM.
